From patent US9096549B2, “Selective HDAC3 inhibitors” (Acetylon Pharmaceuticals, Inc., priority 2013, dated 2015)

The molecules below were run against HDAC3 (Homo sapiens (Human), UniProt O15379) (assay: HDAC enzyme assay, HDAC3). Details: 24 hours pre-incubation with enzyme; tripeptide substrate 3 at Km.
Format: biochemical
Experimental: (§1) Compounds for testing were diluted in DMSO to 50 fold the final concentration and a ten point three fold dilution series was made. The compounds were diluted in assay buffer (50 mM HEPES, pH 7.4, 100 mM KCl, 0.001% Tween-20, 0.05% BSA, […] tris(2-carboxyethyl)phosphine) to 6 fold their final concentration. The HDAC enzymes (purchased from BPS Biosciences) were diluted to 1.5 fold their final concentration in assay buffer and pre-incubated with the compounds for 24 hours prior to addition of the substrate.
(§2) The substrate tripeptide substrate 3 (synthesized in house) for each enzyme was equal to the Km as determined by a substrate titration curve. The substrates were diluted in assay buffer at 6× their final concentration with 0.3 μM sequencing grade trypsin (Sigma). The substrate/trypsin mix was added to the enzyme/compound mix, the plate was shaken for 60 seconds and placed into a Spectramax M5 microtiter plate reader. The development of fluorescence was monitored for 30 min. and the linear rate of the reaction was calculated. The IC50 was determined using Graph Pad Prism by a four parameter curve fit. The IC50 values obtained for the compounds of this invention are found in Table 1.

HDAC3, sequence (O15379 whole entry): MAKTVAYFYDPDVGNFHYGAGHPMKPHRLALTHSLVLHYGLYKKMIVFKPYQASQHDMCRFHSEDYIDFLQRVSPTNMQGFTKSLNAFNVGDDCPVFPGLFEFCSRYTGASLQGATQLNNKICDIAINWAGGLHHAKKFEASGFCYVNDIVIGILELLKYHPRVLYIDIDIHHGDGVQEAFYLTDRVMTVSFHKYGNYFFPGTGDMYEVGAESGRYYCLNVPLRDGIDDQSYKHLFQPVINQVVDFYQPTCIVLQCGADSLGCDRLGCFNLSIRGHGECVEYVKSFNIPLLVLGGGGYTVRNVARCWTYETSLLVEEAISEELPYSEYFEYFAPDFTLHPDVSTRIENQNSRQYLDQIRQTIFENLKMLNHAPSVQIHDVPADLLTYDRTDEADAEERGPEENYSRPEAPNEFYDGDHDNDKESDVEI
HDAC3, sequence (Q9Y618 395-489 partner): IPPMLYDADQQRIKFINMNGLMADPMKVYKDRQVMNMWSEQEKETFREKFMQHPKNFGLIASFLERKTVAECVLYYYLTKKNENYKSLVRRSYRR

| SMILES | IC50 [nM] |
| --- | --- |
| Nc1ccccc1NC(=O)c1cc2ccc(N3CCNCC3)cc2cn1 [Compound K, N-(2-aminophenyl)-7-(piperazin-1-yl)isoquinoline-3-carboxamide] | 38 |
| Nc1cc(F)ccc1NC(=O)c1cnc2c(ccn2CCN2CCOCC2)c1 [Compound G] | 193 |
| Nc1ccc(F)cc1NC(=O)c1ccc2nc(N3CCNCC3)ccc2c1 [Compound R] | 315 |
| Nc1ccccc1NC(=O)c1cc2ccc(N3CCNCC3)c(C3CC3)c2cn1 [Compound L] | 33 |
| Nc1cc(F)ccc1NC(=O)c1cnc2c(C3CC3)c(N3CCNCC3)ccc2c1 [Compound I] | 57 |
| Nc1ccccc1NC(=O)c1cnc2c(C3CC3)c(N3CCNCC3)ccc2c1 [Compound B] | 53 |
| Nc1ccc(F)cc1NC(=O)c1cnc2c(C3CC3)c(N3CCNCC3)ccc2c1 [Compound A] | 59 |
| Nc1cc(F)ccc1NC(=O)c1ccc2c(cnn2CCN2CCOCC2)c1 [Compound H] | 320 |
| CN1CCN(c2ccc3cc(C(=O)Nc4ccc(F)cc4N)cnc3c2C2CC2)CC1 [Compound E] | 68 |
| Nc1cc(F)ccc1NC(=O)c1ccc2c(c1)CC(=O)N2 [Compound C] | 269 |
| Nc1cc(F)ccc1NC(=O)c1ccc2[nH]cnc2c1 [Compound D] | 282 |

Now from value to molecule:

| IC50 [nM] | SMILES |
| --- | --- |
| 675 | Nc1ccc(F)cc1NC(=O)c1cnc2cc(N3CCNCC3)ccc2n1 [Compound O] |
| 308 | Nc1ccc(F)cc1NC(=O)c1cnc2cc(N3CCNCC3)ccc2c1 [Compound Q, N-(2-amino-5-fluorophenyl)-7-(piperazin-1-yl)quinoline-3-carboxamide] |
| 235 | Nc1ccc(F)cc1NC(=O)c1ccc2nc(N3CCNCC3)cnc2c1 [Compound P] |
| 470 | Nc1cc(F)ccc1NC(=O)c1cnc2cc(N3CCNCC3)ccc2c1 [Compound J] |
| 30 | Nc1cc(F)ccc1NC(=O)c1cc2ccc(N3CCNCC3)c(C3CC3)c2cn1 [Compound M] |
| 1300 | Nc1cc(F)ccc1NC(=O)c1cnc2cc(N3CCNCC3)ccc2n1 [Compound N] |

These molecules were tested against HDAC2 (Homo sapiens (Human), UniProt Q92769) (assay: HDAC enzyme assay, HDAC2). Details: 24 hours pre-incubation with enzyme; tripeptide substrate 3 at Km.
HDAC2, sequence (Q92769 whole entry): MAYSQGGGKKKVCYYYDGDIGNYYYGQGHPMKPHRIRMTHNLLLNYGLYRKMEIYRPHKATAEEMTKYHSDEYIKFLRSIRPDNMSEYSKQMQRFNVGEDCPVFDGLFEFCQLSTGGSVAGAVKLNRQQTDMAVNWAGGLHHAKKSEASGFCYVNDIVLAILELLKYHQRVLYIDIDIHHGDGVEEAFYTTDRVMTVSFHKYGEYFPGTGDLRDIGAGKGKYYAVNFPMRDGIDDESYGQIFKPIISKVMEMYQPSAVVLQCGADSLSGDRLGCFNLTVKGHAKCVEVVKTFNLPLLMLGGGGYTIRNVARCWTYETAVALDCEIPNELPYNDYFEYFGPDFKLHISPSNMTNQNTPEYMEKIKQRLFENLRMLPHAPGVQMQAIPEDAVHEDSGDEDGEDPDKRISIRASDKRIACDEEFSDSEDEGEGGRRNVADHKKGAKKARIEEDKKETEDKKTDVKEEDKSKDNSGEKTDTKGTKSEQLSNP
Format: biochemical
Experimental: as §1, §2

| SMILES | IC50 [nM] | IC50 (nM) HDAC2 |
| --- | --- | --- |
| Nc1ccccc1NC(=O)c1cc2ccc(N3CCNCC3)cc2cn1 [Compound K, N-(2-aminophenyl)-7-(piperazin-1-yl)isoquinoline-3-carboxamide] | 271 |  |
| Nc1cc(F)ccc1NC(=O)c1cnc2c(ccn2CCN2CCOCC2)c1 [Compound G] | 1530 |  |
| Nc1ccc(F)cc1NC(=O)c1ccc2nc(N3CCNCC3)ccc2c1 [Compound R] | 1340 |  |
| Nc1ccccc1NC(=O)c1cc2ccc(N3CCNCC3)c(C3CC3)c2cn1 [Compound L] | 212 |  |
| Nc1cc(F)ccc1NC(=O)c1cnc2c(C3CC3)c(N3CCNCC3)ccc2c1 [Compound I] | 589 |  |
| Nc1ccccc1NC(=O)c1cnc2c(C3CC3)c(N3CCNCC3)ccc2c1 [Compound B] | 372 |  |
| Nc1ccc(F)cc1NC(=O)c1cnc2c(C3CC3)c(N3CCNCC3)ccc2c1 [Compound A] | 455 |  |
| Nc1cc(F)ccc1NC(=O)c1ccc2c(cnn2CCN2CCOCC2)c1 [Compound H] | 1780 |  |
| CN1CCN(c2ccc3cc(C(=O)Nc4ccc(F)cc4N)cnc3c2C2CC2)CC1 [Compound E] | 805 |  |
| Nc1cc(F)ccc1NC(=O)c1ccc2c(c1)CC(=O)N2 [Compound C] | > 2000 |  |
| Nc1cc(F)ccc1NC(=O)c1ccc2[nH]cnc2c1 [Compound D] | > 2000 |  |

Results, then the molecule that gave them:

| IC50 [nM] | IC50 (nM) HDAC2 | SMILES |
| --- | --- | --- |
| > 2000 |  | Nc1ccc(F)cc1NC(=O)c1cnc2cc(N3CCNCC3)ccc2n1 [Compound O] |
| > 2000 |  | Nc1ccc(F)cc1NC(=O)c1cnc2cc(N3CCNCC3)ccc2c1 [Compound Q, N-(2-amino-5-fluorophenyl)-7-(piperazin-1-yl)quinoline-3-carboxamide] |
| 1100 |  | Nc1ccc(F)cc1NC(=O)c1ccc2nc(N3CCNCC3)cnc2c1 [Compound P] |
| > 2000 |  | Nc1cc(F)ccc1NC(=O)c1cnc2cc(N3CCNCC3)ccc2c1 [Compound J] |
| 228 |  | Nc1cc(F)ccc1NC(=O)c1cc2ccc(N3CCNCC3)c(C3CC3)c2cn1 [Compound M] |
|  | No inhibition | Nc1cc(F)ccc1NC(=O)c1cnc2cc(N3CCNCC3)ccc2n1 [Compound N] |

Each molecule was assayed against HDAC1 (Homo sapiens (Human), UniProt Q13547) (assay: HDAC enzyme assay, HDAC1). Details: 24 hours pre-incubation with enzyme; tripeptide substrate 3 at Km.
HDAC1, sequence (Q13547 whole entry): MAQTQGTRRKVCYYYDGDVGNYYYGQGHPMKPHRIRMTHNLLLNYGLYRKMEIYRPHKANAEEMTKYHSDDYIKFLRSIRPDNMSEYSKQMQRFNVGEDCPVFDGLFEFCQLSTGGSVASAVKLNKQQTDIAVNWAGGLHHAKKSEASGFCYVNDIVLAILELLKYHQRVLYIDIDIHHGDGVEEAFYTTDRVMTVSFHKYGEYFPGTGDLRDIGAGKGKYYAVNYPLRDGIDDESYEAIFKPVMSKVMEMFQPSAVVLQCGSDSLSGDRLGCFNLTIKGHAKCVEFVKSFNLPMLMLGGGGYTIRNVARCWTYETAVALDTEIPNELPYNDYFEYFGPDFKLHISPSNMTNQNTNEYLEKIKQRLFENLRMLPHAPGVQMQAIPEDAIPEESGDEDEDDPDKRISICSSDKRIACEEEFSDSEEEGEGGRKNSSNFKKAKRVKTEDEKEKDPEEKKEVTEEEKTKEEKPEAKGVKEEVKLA
Format: biochemical
Experimental: as §1, §2

| SMILES | IC50 [nM] | IC50 (nM) HDAC1 |
| --- | --- | --- |
| Nc1ccccc1NC(=O)c1cc2ccc(N3CCNCC3)cc2cn1 [Compound K, N-(2-aminophenyl)-7-(piperazin-1-yl)isoquinoline-3-carboxamide] | 299 |  |
| Nc1cc(F)ccc1NC(=O)c1cnc2c(ccn2CCN2CCOCC2)c1 [Compound G] | > 2000 |  |
| Nc1ccc(F)cc1NC(=O)c1ccc2nc(N3CCNCC3)ccc2c1 [Compound R] | > 2000 |  |
| Nc1ccccc1NC(=O)c1cc2ccc(N3CCNCC3)c(C3CC3)c2cn1 [Compound L] | 228 |  |
| Nc1cc(F)ccc1NC(=O)c1cnc2c(C3CC3)c(N3CCNCC3)ccc2c1 [Compound I] | > 2000 |  |
| Nc1ccccc1NC(=O)c1cnc2c(C3CC3)c(N3CCNCC3)ccc2c1 [Compound B] | 355 |  |
| Nc1ccc(F)cc1NC(=O)c1cnc2c(C3CC3)c(N3CCNCC3)ccc2c1 [Compound A] | 468 |  |
| Nc1cc(F)ccc1NC(=O)c1ccc2c(cnn2CCN2CCOCC2)c1 [Compound H] | > 2000 |  |
| CN1CCN(c2ccc3cc(C(=O)Nc4ccc(F)cc4N)cnc3c2C2CC2)CC1 [Compound E] | 1610 |  |
| Nc1cc(F)ccc1NC(=O)c1ccc2c(c1)CC(=O)N2 [Compound C] |  | No inhibition |
| Nc1cc(F)ccc1NC(=O)c1ccc2[nH]cnc2c1 [Compound D] |  | No inhibition |

The next lines start with the values.

| IC50 [nM] | IC50 (nM) HDAC1 | SMILES |
| --- | --- | --- |
| > 2000 |  | Nc1ccc(F)cc1NC(=O)c1cnc2cc(N3CCNCC3)ccc2n1 [Compound O] |
| > 2000 |  | Nc1ccc(F)cc1NC(=O)c1cnc2cc(N3CCNCC3)ccc2c1 [Compound Q, N-(2-amino-5-fluorophenyl)-7-(piperazin-1-yl)quinoline-3-carboxamide] |
| > 2000 |  | Nc1ccc(F)cc1NC(=O)c1ccc2nc(N3CCNCC3)cnc2c1 [Compound P] |
|  | No inhibition | Nc1cc(F)ccc1NC(=O)c1cnc2cc(N3CCNCC3)ccc2c1 [Compound J] |
| 462 |  | Nc1cc(F)ccc1NC(=O)c1cc2ccc(N3CCNCC3)c(C3CC3)c2cn1 [Compound M] |
|  | No inhibition | Nc1cc(F)ccc1NC(=O)c1cnc2cc(N3CCNCC3)ccc2n1 [Compound N] |
